Results as given in article PMC6170555, “Synthesis of novel (E)-1-(2-(2-(4(dimethylamino) benzylidene) hydrazinyl)-4-methylthiazol-5-yl)ethanone derivatives as ecto-5′-nucleotidase inhibitors” (Royal Society Open Science, 2018).

What was measured:
r-e5′NT = molecular target: T1, r-e5′NT (Rattus norvegicus, UniProt P21588); test: Ecto-5′-nucleotidase inhibition assay (capillary electrophoresis), rat enzyme; format: biochemical; details: for IC50 / inhibition at 100 µM: mean ± s.e.m., n = 3; for IC50: substrate AMP 500 µM; for inhibition at 100 µM: compound at 0.1 mM, read-out: r-e5′NT percentage inhibition ± s.e.m.; for inhibitory potential toward r-e5′NT after initial screening: initial screening at 0.1 mM
T1 construct: made in house; host or cells: COS-7 cells, transiently transfected; sonicated extract / membrane fraction
T1 sequence (P21588 29-576): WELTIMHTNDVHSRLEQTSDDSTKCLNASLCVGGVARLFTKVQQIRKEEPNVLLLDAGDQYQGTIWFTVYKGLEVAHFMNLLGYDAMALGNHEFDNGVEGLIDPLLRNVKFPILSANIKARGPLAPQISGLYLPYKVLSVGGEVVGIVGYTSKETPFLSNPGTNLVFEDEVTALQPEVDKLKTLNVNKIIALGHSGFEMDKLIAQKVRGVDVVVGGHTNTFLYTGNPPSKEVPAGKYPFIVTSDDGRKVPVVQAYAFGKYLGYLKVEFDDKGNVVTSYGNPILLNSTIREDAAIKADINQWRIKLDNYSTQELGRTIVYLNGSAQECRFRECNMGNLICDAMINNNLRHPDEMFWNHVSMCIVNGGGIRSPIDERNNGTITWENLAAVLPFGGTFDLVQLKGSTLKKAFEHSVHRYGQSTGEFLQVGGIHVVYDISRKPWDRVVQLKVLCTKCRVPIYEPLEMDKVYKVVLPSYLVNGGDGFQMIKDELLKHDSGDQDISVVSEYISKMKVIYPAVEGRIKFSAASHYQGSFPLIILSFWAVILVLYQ
Experimental: (§1) The plasmids expressing e5′NT, either rat or human, were used to transfect the COS-7 cells through lipofectamine. The confluent cells were allowed to incubate in DMEM/F-12 having plasmid DNA (6 µg) and transfecting reagent (24 µl) for 5 h at ambient temperature (37°C). To discontinue transfection, a specified volume of DMEM/F-12 was added, containing FBS (20%). These cells were then harvested after 2–3 days.
(§2) The transfected cells were separated from harvesting buffer (45 mM Tris buffer, 95 mM NaCl, and 0.1 mM PMSF, pH 7.5) through scraping, followed by washing with Tris buffer and then allowed to centrifuge by spinning at 300 r.p.m. at 4°C for 5 min [30]. Finally, the cells remained suspended in harvesting buffer solution containing aprotinin (10 µg ml^−1). As a result of sonication, the produced cellular debris was removed by cold centrifugation operated at 300 r.p.m. for 10 min. Glycerol (7.5%) was mixed with the resultant supernatant. The Bradford microplate assay was employed for estimation of protein concentration where albumin was used as a standard.
(§3) The e5′NT inhibition assay was performed with respect to our previously described procedure on P/ACE MDQ capillary electrophoresis system (Beckman Instruments, Fullerton, CA, USA) provided with UV detection system. The samples were prepared in the assay buffer (1 mM CaCl2, 10 mM Tris HCl and 2 mM MgCl2, pH 7.4) and analysed at 0.1 mM concentration. The total assay volume (100 µl) comprises sample (10 µl), 10 µl of h-e5′NT (6.94 µg ml^−1) protein extract or r-e5′NT (7.17 µg ml^−1) and 70 µl of assay buffer. The above mixture was allowed to incubate at 37°C for 10 min. Subsequently, biochemical reaction was started with the addition of substrate (10 µl) and AMP (500 µM). The mixture was incubated again for 30 min at 37°C. The enzyme-substrate reaction was stopped by thermal denaturation for the duration of 20 min by placing the mixture in a water bath at 99°C. Then, 50 µl of obtained mixture was filled into CE mini vials and injected with 0.5 psi into the capillary in 5 s, whereas 15 kV was set to split-up substrate and product peaks. […] Therefore, successive dilution of each active compound was made and different inhibitor concentrations were assayed to obtain the dose–response curve against both enzymes. All experiments were conducted thrice. The nonlinear regression analysis program (PRISM 5.0) was employed to calculate IC50 value.

h-e5′NT = molecular target: T2, h-e5′NT (Homo sapiens, UniProt P21589); test: Ecto-5′-nucleotidase inhibition assay (capillary electrophoresis), human enzyme; format: biochemical; details: for IC50 / inhibition at 100 µM: mean ± s.e.m., n = 3; for IC50: substrate AMP 500 µM; for inhibition at 100 µM: compound at 0.1 mM, read-out: h-e5′NT percentage inhibition ± s.e.m.; for inhibitory potential toward h-e5′NT after initial screening: initial screening at 0.1 mM
T2 construct: made in house; host or cells: COS-7 cells, transiently transfected; sonicated extract / membrane fraction
T2 sequence (P21589 27-574): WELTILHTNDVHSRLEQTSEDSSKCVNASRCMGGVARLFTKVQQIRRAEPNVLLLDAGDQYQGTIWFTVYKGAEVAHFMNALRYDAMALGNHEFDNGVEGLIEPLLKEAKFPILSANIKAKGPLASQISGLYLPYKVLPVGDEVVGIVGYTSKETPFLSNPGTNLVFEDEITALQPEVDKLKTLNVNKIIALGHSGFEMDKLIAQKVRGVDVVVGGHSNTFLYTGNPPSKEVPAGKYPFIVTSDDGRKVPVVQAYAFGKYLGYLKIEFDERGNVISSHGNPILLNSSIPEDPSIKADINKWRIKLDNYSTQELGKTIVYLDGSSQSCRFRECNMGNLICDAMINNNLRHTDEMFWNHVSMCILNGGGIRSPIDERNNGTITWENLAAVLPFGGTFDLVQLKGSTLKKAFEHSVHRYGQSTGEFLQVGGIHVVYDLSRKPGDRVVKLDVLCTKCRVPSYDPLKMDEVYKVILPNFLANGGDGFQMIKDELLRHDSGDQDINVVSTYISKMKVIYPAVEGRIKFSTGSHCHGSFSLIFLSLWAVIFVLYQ
Experimental: as §1, §2, §3

Which IC50 (r-e5′NT) does the source give for `CC(=O)c1sc(N/N=C/c2cccnc2)nc1C` [3a, (E)-1-(4-methyl-2-(2-(pyridin-3-ylmethylene)hydrazinyl)thiazol-5-yl)ethanone] here?
The IC50 was 7.81 ± 0.89 µM.

And the IC50 (h-e5′NT)?
Its IC50 is 0.32 ± 0.03 µM.

What about the “potency against h-e5′NT relative to r-e5′NT” value (h-e5′NT; ratio of IC50 r-e5′NT / h-e5′NT) of the same molecule?
The value was 24 fold.

And the “inhibition against h-e5′NT compared with positive control sulfamic acid” value (h-e5′NT; ratio of IC50 sulfamic acid / compound)?
Its value is 132 fold.

How did the IC50 (r-e5′NT) turn out when `CC(=O)c1sc(N/N=C/c2ccc(N(C)C)cc2)nc1C` [3b, (E)-1-(2-(2-(4-(dimethylamino)benzylidene)hydrazinyl)-4-methylthiazol-5-yl)ethanone] was run?
Its IC50 is 10.1 ± 0.58 µM.

And the IC50 (h-e5′NT)?
The IC50 was 0.56 ± 0.07 µM.

`CC(=O)c1sc(N/N=C/c2ccco2)nc1C` [3c, (E)-1-(2-(2-(furan-2-ylmethylene)hydrazinyl)-4-methylthiazol-5-yl)ethanone] was tested. Which inhibition at 100 µM (r-e5′NT) did it give?
Its inhibition at 100 µM is 15.3 ± 2.78%.

And the “inhibitory potential toward r-e5′NT after initial screening” value (r-e5′NT)?
Its value is “no inhibitory potential”.

And the inhibition at 100 µM (h-e5′NT)?
Its inhibition at 100 µM is 38.1 ± 5.47%.

What about the “inhibitory potential toward h-e5′NT after initial screening” value (h-e5′NT) of the same molecule?
Its value is “no inhibitory potential”.

What does the source list for `CC(=O)c1sc(N/N=C/c2ccc(C)o2)nc1C` [3d, (E)-1-(4-methyl-2-(2-((5-methylfuran-2-yl)methylene)hydrazinyl)thiazol-5-yl)ethanone]?
inhibition at 100 µM (r-e5′NT): 12.3 ± 3.91%; inhibitory potential toward r-e5′NT after initial screening (r-e5′NT): no inhibitory potential; inhibition at 100 µM (h-e5′NT): 43.6 ± 1.18%; inhibitory potential toward h-e5′NT after initial screening (h-e5′NT): no inhibitory potential

Which results are given for `CC(=O)c1sc(N/N=C/c2ccc[nH]2)nc1C` [3e, (E)-1-(2-(2-((1H-pyrrol-2-yl)methylene)hydrazinyl)-4-methylthiazol-5-yl)ethanone]?
inhibition at 100 µM (r-e5′NT): 10.8 ± 4.25%; IC50 (h-e5′NT): 3.36 ± 0.12 µM

With `CC(=O)c1sc(N/N=C/c2cc3ccccc3[nH]2)nc1C` [3f, (E)-1-(2-(2-((1H-indol-2-yl)methylene)hydrazinyl)-4-methylthiazol-5-yl)ethanone] as the molecule, how does the inhibition at 100 µM (r-e5′NT) read?
The inhibition at 100 µM was 32.7 ± 1.62%.

What about the IC50 (h-e5′NT) of the same molecule?
The IC50 was 6.19 ± 0.32 µM.

Which results are given for `NS(=O)(=O)O` [sulfamic acid, reference compound]?
IC50 (r-e5′NT): 77.3 ± 7.01 µM; IC50 (h-e5′NT): 42.1 ± 7.8 µM
